We go through eight molecules from patent US10517863B2, “Trilobine and its natural analogs for use as a drug” (PIERRE FABRE MEDICAMENT, priority 2015, dated 2019).

SMILES strings stand for the structures.

As usually defined, the inhibition is the share of the control response that was lost under treatment. The term EC50 denotes the concentration that produces a half-maximal response.

Assay [1] has as its target T1, human C-terminal DNMT3A (a.a. 623-908) (Homo sapiens, UniProt Q9Y6K1).
T1 construct: The human C-terminal DNMT3A (a.a. 623-908); made in house
Nature of the assay: hDNMT3A restriction-based fluorescence assay. To be noted: for inhibition at 10 µM / inhibition at 32 µM: read-out: hDNMT 3A inhibition, Inhibition (%); for EC50: brackets: 95% confidence interval, read-out: hDNMT 3A inhibition EC50. Format: biochemical. The source says: hDNMT3A enzyme inhibition was adapted from the restriction-based fluorescence assay protocol as described in the literature (Ceccaldi et al. ChemBioChem 2011, 12, 1337-1345). Briefly, a 5′-labelled biotin oligonucleotide is hybridized to its complementary strand labelled with 6-carboxyfluorescein at the 3′-end into a 384 well microplate (black Optiplates; Perkin Elmer) pre-coated with avidin. The duplex contains a unique CpG site overlapping with a restriction site of a methylation sensitive restriction enzyme. The human C-terminal DNMT3A (a.a. 623-908), produced as described in the literature (Gros et al. Nucl. Acids Res. 2013, 41(19):e185), was added in each well (200 ng/well) and mixed with the chemical compounds at desired concentrations and freshly prepared AdoMet (20 μM final concentration) to start the reaction in a total volume of 50 μL. After 1 hour incubation at 37° C. each well were washed three times with PBS, Tween-20 0.05%, NaCl (500 mM) and three more times with PBST. Specific fluorescent signals were detected with the methylation-sensitive restriction enzyme HpyCH4IV (NEB) as described and measured on a Perkin Elmer Envision detector. The percentage of inhibition is reported. The formula used to calculate the percentage of inhibition is [(X−Y)/X]×100, where X is the signal determined in the absence of the inhibitor and Y is the signal obtained in the presence of the inhibitor. The concentration at which 50% of efficacy of inhibition is observed (EC50) was determined by analysis of a concentration range of the tested compound in triplicates. The non-linear regression fittings with sigmoidal dose-response (variable slope) were performed with GraphPad Prism 4.03 (GraphPad Software).

The subject of assay [2] is luciferase reporter under the control of a methylated CMV promoter in leukemia KG-1 cells. As to the kind of experiment: CMV-luc reexpression (luciferase reporter) in KG-1 cells. In kind it is cell-based, human. Particulars: 24 hour incubation, fold induction vs DMSO, mean ± standard error. As for the experimental part:
Aiming at identifying new DNMT inhibitors, plant extract samples were tested for their ability to reactivate gene expression upon use of an integrated luciferase reporter system under the control of a methylated CMV promoter in leukemia KG-1 cells which inhibits its expression (CMV-luc assay reported in following Table). […] The extract was fractionated by preparative HPLC. Identification of the active components was accomplished by HRMS and NMR spectroscopy. The pure compounds isolated from the extract through bio-guided fractionation are trilobine and bisbenzylisoquinoline analogue products. The active compounds were then further evaluated for their ability to inhibit DNMTs in vitro and DNA methylation in cancer cells.
KG-1 cells were stably transfected with the firefly luciferase reporter gene (luc+ from pGL3; Promega) under the control of the cytomegalovirus (CMV) promoter (from pEGFP-N1; Clontech Laboratories Inc.) partially methylated (50%). 20,000 cells per well were seeded in a 96-well plate. After 24 hour incubation in the presence of the test compound or solvant (DMSO), the induction of the promoter was measured by quantification of the luciferase signal with the Brite-lite assay system (PerkinElmer) according to the manufacturer's protocol. The luminescence was measured on an EnVision multilabel plate reader (PerkinElmer), and the data are expressed as the fold induction as compared with the DMSO control. The mean of three experiments and the standard error is reported.

Assay [3] addresses T2, His-DNMT1 (182 kDa, human) (Homo sapiens, UniProt P26358).
T2 construct: His; made in house
As to the kind of experiment: hDNMT1 assay ([methyl-3H] SAM Flashplate). Format: biochemical. Particulars: read-out: hDNMT1 percentage of inhibition. How it is done:
His-DNMT1 (182 kDa, human) was cloned, expressed and purified as described in the literature (Halby et al. ChemBioChem 2012, 13, 157-165). The reaction was performed in a […] total reaction volume in low volume NBS™ 384-well microplates (Corning), containing the tested compound (up to 1% DMSO), 1 μM of a SAM/[methyl-^3H] SAM (3 TBq/mmol, PerkinElmer) mix in a ratio of 3-to-1 (isotopic dilution 1*:3), 0.3 μM of biotinylated hemimethylated DNA duplex (5′-GATmCGCmCGATGmCGmCGAATmCGmCGATmCGATGmCGAT-3′ and BIOT-5′-[…]-3′), and 90 nM of DNMT1 in methylation buffer (20 mM HEPES pH 7.2, 1 mM EDTA, 50 mM KCl, 25 μg/mL BSA). The reaction was incubated at 37° C. for 2 hours. 8 μL, are then transferred into a streptavidin 96-well scintillant coated Flashplate™ (PerkinElmer) containing 190 μL of 20 μM SAH in 50 mM Tris-HCl pH 7.4. The Flashplate™ was agitated at room temperature for 1 hour and read in 200 μL of 50 mM Tris-HCl pH 7.4 on TopCount NXT (PerkinElmer). The percentage of inhibition is reported. The formula used to calculate the percentage of inhibition is [(X−Y)/X]×100, where X is the signal determined in the absence of the inhibitor and Y is the signal obtained in the presence of the inhibitor.

T1 sequence (Q9Y6K1 627-912): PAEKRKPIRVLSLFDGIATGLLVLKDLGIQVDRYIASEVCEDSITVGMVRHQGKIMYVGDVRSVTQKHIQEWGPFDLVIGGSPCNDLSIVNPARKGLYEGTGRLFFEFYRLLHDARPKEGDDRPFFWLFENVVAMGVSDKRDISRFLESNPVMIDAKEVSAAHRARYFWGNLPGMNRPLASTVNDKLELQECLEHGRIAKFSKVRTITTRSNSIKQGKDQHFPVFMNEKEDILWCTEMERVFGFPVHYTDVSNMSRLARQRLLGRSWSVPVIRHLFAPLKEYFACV
T2 sequence (P26358 whole entry): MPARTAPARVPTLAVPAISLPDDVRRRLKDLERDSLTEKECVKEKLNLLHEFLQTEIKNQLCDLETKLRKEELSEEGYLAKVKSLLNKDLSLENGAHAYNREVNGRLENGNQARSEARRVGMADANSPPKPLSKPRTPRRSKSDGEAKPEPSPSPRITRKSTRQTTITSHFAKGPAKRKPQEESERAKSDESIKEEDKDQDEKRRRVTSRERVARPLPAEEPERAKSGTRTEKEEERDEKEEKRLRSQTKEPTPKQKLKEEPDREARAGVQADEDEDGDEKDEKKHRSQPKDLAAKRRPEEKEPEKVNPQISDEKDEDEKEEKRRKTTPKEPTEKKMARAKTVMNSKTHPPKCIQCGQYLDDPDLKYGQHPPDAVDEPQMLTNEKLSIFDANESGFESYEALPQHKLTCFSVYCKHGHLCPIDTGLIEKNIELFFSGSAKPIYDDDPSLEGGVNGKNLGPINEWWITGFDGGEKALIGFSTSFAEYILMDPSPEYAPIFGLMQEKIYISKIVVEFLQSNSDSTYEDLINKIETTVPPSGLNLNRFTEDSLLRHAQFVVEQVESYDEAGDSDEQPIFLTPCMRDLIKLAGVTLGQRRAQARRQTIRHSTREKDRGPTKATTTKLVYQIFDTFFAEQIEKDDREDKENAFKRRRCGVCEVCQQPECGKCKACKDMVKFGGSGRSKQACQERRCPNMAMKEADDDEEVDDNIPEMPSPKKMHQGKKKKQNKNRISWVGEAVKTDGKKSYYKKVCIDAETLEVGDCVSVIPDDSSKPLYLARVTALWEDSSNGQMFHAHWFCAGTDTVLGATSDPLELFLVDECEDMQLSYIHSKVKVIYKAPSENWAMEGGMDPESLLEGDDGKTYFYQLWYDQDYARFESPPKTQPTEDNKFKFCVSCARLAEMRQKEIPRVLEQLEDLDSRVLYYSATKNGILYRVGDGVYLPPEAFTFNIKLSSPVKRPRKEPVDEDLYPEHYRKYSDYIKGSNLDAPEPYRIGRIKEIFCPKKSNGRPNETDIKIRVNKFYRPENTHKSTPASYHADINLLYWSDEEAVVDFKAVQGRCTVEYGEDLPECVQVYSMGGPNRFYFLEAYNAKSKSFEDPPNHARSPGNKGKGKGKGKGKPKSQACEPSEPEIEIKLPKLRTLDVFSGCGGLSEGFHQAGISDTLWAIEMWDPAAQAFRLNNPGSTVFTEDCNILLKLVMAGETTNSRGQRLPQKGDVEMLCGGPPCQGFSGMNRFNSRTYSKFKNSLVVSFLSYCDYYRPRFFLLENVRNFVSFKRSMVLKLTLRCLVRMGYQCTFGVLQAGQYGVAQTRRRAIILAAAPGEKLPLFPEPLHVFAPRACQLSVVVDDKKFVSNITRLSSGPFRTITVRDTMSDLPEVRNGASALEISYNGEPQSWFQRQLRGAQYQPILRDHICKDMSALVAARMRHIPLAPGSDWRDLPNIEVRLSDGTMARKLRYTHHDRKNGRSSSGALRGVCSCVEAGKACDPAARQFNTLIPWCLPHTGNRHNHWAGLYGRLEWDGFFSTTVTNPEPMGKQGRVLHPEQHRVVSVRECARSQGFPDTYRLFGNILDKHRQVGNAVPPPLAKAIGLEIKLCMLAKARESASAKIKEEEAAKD

For `COc1ccc2cc1Oc1ccc(cc1)C[C@H]1c3c(cc(OC)c4c3Oc3cc5c(cc3O4)CCN[C@H]5C2)CCN1C` [Compound 3, O-Methylcocsoline], in assay [1], the inhibition at 10 µM is 95% and the inhibition at 32 µM came out at 100%.

As for `COc1ccc2cc1Oc1ccc(cc1)C[C@H]1c3c(cc(OC)c4c3Oc3cc5c(cc3O4)CCN=C5C2)CCN1C` [Compound 9, 1,2-Dehydrotelobine], in assay [1], the inhibition at 10 µM was determined as 37%, the inhibition at 32 µM is 63% and the EC50 was greater than 10 µM.

Take `COc1ccc2cc1Oc1ccc(cc1)C[C@@H]1NCCc3cc(OC)c4c(c31)Oc1cc3c(cc1O4)CCN[C@H]3C2` [Compound 7, Nortrilobine]: the “Reactivation fold of luciferase gene reporter in KG-1 CMV-Luc” value (shortened to “Reactivation fold”) in assay [2] (0.1 μM) was found to be 1.1 ± 0.2 fold; in assay [2] (0.32 μM), 1.7 ± 0.5 fold; in assay [2] (0.5 μM), 1.9 ± 1.3 fold; in assay [2] (1 μM), 2.6 ± 1.8 fold; in assay [2] (3.2 μM), 5.4 ± 2.6 fold; in assay [2] (5 μM) it was 12.3 ± 1.2 fold. Also, the “Reactivation fold” value in assay [2] (10 μM) is on record as “cyt. tox”. Moreover, the inhibition at 10 µM in assay [1] was 83%. Also, the inhibition at 32 µM in assay [1] is 94%; in assay [3], 99%.

Take `COc1cc2c3c4c1Oc1cc5c(cc1O4)[C@H](Cc1ccc(O)c(c1)Oc1ccc(cc1)C[C@@H]3N(C)CC2)NCC5` [Compound 6, Cocsoline]: in assay [1], the inhibition at 10 µM is 37%, the inhibition at 32 µM was 91% and the EC50 was greater than 10 µM.

Regarding `COc1cc2c3c4c1Oc1cc5c(cc1O4)[C@H](Cc1ccc(O)c(c1)Oc1ccc(cc1)C[C@@H]3N(C)CC2)N(C)CC5` [Compound 4, Cocsuline], in assay [1], the inhibition at 10 µM stood at 23%, the inhibition at 32 µM was 66% and the EC50 is greater than 10 µM.

With `COc1cc2c3c4c1Oc1cc5c(cc1O4)C(=NCC5)Cc1ccc(O)c(c1)Oc1ccc(cc1)C[C@@H]3N(C)CC2` [Compound 8, 1,2-Dehydroapateline], in assay [1], the inhibition at 10 µM was determined as 41%, the inhibition at 32 µM was determined as 68% and the EC50 is greater than 10 µM.

On to `COc1ccc2cc1Oc1ccc(cc1)C[C@H]1c3c(cc(OC)c4c3Oc3cc5c(cc3O4)CCN(C)[C@H]5C2)CCN1C` [Compound 2, Isotrilobine], for which the “Reactivation fold” value in assay [2] (0.1 μM) stood at 1.0 ± 0.1 fold; in assay [2] (0.32 μM), 2.4 ± 1.4 fold; in assay [2] (0.5 μM), 2.8 ± 0.8 fold; in assay [2] (1 μM), 3.6 ± 2.9 fold; in assay [2] (3.2 μM), 2.4 ± 0.7 fold; in assay [2] (5 μM) it was 3.1 ± 0.6 fold. In addition, the “Reactivation fold” value in assay [2] (10 μM) was found to be 6.1 ± 0.5 fold. Also, the inhibition at 10 µM in assay [1] worked out at 56%. In assay [1], the inhibition at 32 µM stood at 76%.

With `COc1cc2c3c4c1Oc1cc5c(cc1O4)[C@H](Cc1ccc(O)c(c1)Oc1ccc(cc1)C[C@@H]3NCC2)N(C)CC5` [Compound 5, 2′-Norcocsuline], the “Reactivation fold” value was 1.0 ± 0.2 fold in assay [2] (0.1 μM); 2.3 ± 0.7 fold in assay [2] (0.32 μM); 2.1 ± 0.6 fold in assay [2] (0.5 μM); 2.6 ± 1.6 fold in assay [2] (1 μM); 3.9 ± 0.4 fold in assay [2] (3.2 μM); 5.1 ± 0.1 fold in assay [2] (5 μM). In assay [2] (10 μM), the “Reactivation fold” value is given as “cyt. tox”. The inhibition at 10 µM in assay [1] came out at 73%. For the same molecule, the inhibition at 32 µM in assay [1] worked out at 88%.
